Results reported in PubChem BioAssay (NCI).
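How tested: cells in 96-well plates exposed to compound for 48 hours at five concentrations. TGI denotes the concentration required for complete inhibition of growth.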

What was measured:
Test in all cases: NCI tumour cell line growth inhibition, 48 h
SF-268 CNS = tested on: SF-268 CNS
UO-31 renal = tested on: UO-31 renal
OVCAR-8 ovarian = tested on: OVCAR-8 ovarian
HT29 colon = tested on: HT29 colon
EKVX NSCLC = tested on: EKVX NSCLC
TK-10 renal = tested on: TK-10 renal
NCI-H226 lung = tested on: NCI-H226 lung
PC-3 prostate = tested on: PC-3 prostate
SR leukemia = tested on: SR leukemia
LOX IMVI melanoma = tested on: LOX IMVI melanoma
BT-549 breast = tested on: BT-549 breast

Row | SMILES | TGI (SF-268 CNS) [µM] | TGI (UO-31 renal) [µM] | TGI (OVCAR-8 ovarian) [µM] | TGI (HT29 colon) [µM] | TGI (EKVX NSCLC) [µM] | TGI (TK-10 renal) [µM] | TGI (NCI-H226 lung) [µM] | TGI (PC-3 prostate) [µM] | TGI (SR leukemia) [µM] | TGI (LOX IMVI melanoma) [µM] | TGI (BT-549 breast) [µM]
1 | COc1ccc2c(OC)c3ccoc3nc2c1O | > 100 | > 100 | > 100 | > 100 | > 100 | > 100 | – | – | – | – | –
2 | CC(=NNC(=S)Nc1ccccc1C)c1cccc(C(C)=NNC(=S)Nc2ccccc2C)n1 | > 100 | > 100 | > 100 | > 100 | > 100 | > 100 | > 100 | > 100 | 12 | > 100 | –
3 | COc1c(O)cc(/C=C/c2cc(O)cc3c2[C@@]2(C(=O)O3)c3c(O)cc(O)cc3OC2c2cccc(O)c2)cc1O (some centres not stated) | > 100 | > 100 | > 100 | 81.8 | – | > 100 | – | > 100 | 26.5 | > 100 | > 100
4 | Cc1ccc(-c2c(C#N)c(-c3ccc(N(C)C)cc3)c(C#N)c(=O)n2NS(=O)(=O)c2ccccc2)cc1 | > 100 | – | > 100 | > 100 | > 100 | > 100 | > 100 | > 100 | – | > 100 | > 100
5 | O=C1/C(=C/c2cccc([N+](=O)[O-])c2)COc2ccccc21 | > 80.3 | 67.8 | 9.19 | 6.85 | > 92.2 | > 95.2 | 22.6 | – | – | 3.44 | –
6 | Fc1ccc(C(OCCN2CCC3CCC(C2)N3CCCc2ccccc2)c2ccc(F)cc2)cc1 (configuration not stated) | 19.8 | 16.3 | 4.93 | 13.7 | 15.2 | 15.7 | 15.1 | 11.4 | – | 13.8 | 21.1
7 | C1=CCN(c2ccccc2)CC1 | > 100 | > 100 | 81.2 | 87.3 | > 100 | > 100 | – | – | > 100 | > 100 | –
8 | CCN(CC)CCCCC1CCN(CC(=O)N2c3ccccc3NC(=O)c3ccccc32)CC1 | > 100 | > 100 | > 100 | > 100 | > 100 | > 100 | > 100 | – | > 100 | – | –
9 | O=C(Nc1ccccc1)N1CCNC1=S | > 100 | > 100 | > 100 | > 100 | > 100 | – | > 100 | – | > 100 | > 100 | > 100
10 | Nc1ccc(N=Nc2ccc(/C=C/c3ccc(N=Nc4ccc(N)c5ccc(S(=O)(=O)O)cc45)cc3S(=O)(=O)O)c(S(=O)(=O)O)c2)c2cc(S(=O)(=O)O)ccc12 | > 100 | > 100 | > 100 | > 100 | > 100 | – | > 100 | – | – | > 100 | –
11 | CC(=O)OC1[C@H]2c3cc4c(cc3CN3CCC(C[C@@H]1OC(C)=O)C23)OCO4 (some centres not stated) | > 75 | > 75 | > 75 | > 75 | > 75 | > 75 | 59.9 | – | > 75 | > 75 | –
12 | CCCCCCC(N)(CCCCCC)C(=O)Nn1c(C)ccc1C | > 100 | > 100 | > 100 | > 100 | 58.4 | > 100 | > 100 | > 100 | > 100 | – | > 100
13 | COc1cc(C2c3cccc4cccc(c34)C3CCC(=O)N32)cc(O)c1O (configuration not stated) | – | > 50 | > 50 | > 50 | > 50 | – | > 50 | > 50 | 29.5 | – | > 50
14 | CSc1nc(C)cc(Nc2ccc(O)c(CN3CCCCC3)c2)n1 | > 100 | > 100 | > 100 | 60.1 | 88.7 | – | 84.3 | – | > 100 | > 100 | > 100
15 | N#Cc1c(-c2ccccc2)c(C#N)c(=O)n(NS(=O)(=O)c2ccccc2)c1O | > 100 | – | > 100 | > 100 | > 100 | > 100 | > 100 | > 100 | – | > 100 | > 100
16 | O=c1c2cc(I)ccc2nc(-c2cccs2)n1Nc1ccccc1 | > 100 | > 100 | > 100 | > 100 | 58.4 | – | > 100 | > 100 | > 100 | > 100 | > 100
17 | CCOC(=O)CCc1c(C(=O)OCC)[nH]c(/C=C2/NC(=O)C(C)=C2CC)c1C | 29.2 | 10.5 | > 100 | 39.9 | – | 88.2 | 48.2 | > 100 | 20.4 | 21 | 6.19
18 | Oc1cn(-c2ccc(Cl)cc2)nc1-c1nnc(Nc2ccccc2)o1 | 33.7 | 46.1 | 43.6 | 22 | 72.8 | 38.1 | 31.4 | – | – | – | –
19 | CC(=O)c1c2c(cc3c1CC1(Cc4cc5c(cc4C1)CCC5)C3)CCC2 | > 100 | > 100 | > 100 | > 100 | > 100 | > 100 | – | > 100 | > 100 | > 100 | –
20 | C/C(C=O)=N\Nc1cc(C)c2ccccc2n1 | 43.2 | 28.1 | 34.8 | 30.8 | 33.7 | 29.5 | – | 33 | 4.17 | 29.4 | 26.6
21 | COc1ccc(CCN2CCC(C#N)(c3ccc(OC)c(OC)c3)CC2)cc1OC | > 100 | > 100 | > 100 | > 100 | > 100 | > 100 | > 100 | – | > 100 | > 100 | –
22 | N[C@@H]1C[C@H](N)c2c(Cl)sc(Cl)c21 | – | > 100 | > 100 | – | > 100 | – | > 100 | > 100 | > 100 | > 100 | > 100
23 | CC1C2CC(C(C3C(=O)C4CC3C(C)(C)C4C)C2=O)C1(C)C (configuration not stated) | > 100 | > 100 | > 100 | > 100 | > 100 | > 100 | > 100 | > 100 | > 100 | – | > 100
